According to EP3390415B1, “(R)- AND (S)-1-(3-(3-N,N-DIMETHYLAMINOCARBONYL)PHENOXYL-4-NITROPHENYL)-1-ETHYL-N,N'-BIS (ETHYLENE)PHOSPHORAMIDATE, COMPOSITIONS AND METHODS FOR THEIR USE AND PREPARATION” (OBI PHARMA, INC., priority 2015, dated 2017):
Read-outs that look alike come from different tables or passages of the source.

What was measured:
[1] = test system: A375 melanoma human tumor xenograft; test: In vivo human tumor xenograft model, antitumor activity; parameters: species or system nude mice; conditions: 20mpk,qdx5x2,ip
Text: Specific pathogen-free homozygous female nude mice (nu/nu, Charles River Laboratories) were used. Mice were given food and water ad libitum and housed in microisolator cages. Four to six week old animals were identified by microchips (Locus Technology, Manchester, MD, USA) at the time of the experiments. All animal studies were approved by the Institutional Animal Care and Use Committee at Threshold Pharmaceuticals, Inc.
All cell lines were from the American Type Culture Collection (ATCC, Rockville, MD, USA).
Cells were mixed with Matrigel (30% in H460) and 0.2 ml per mouse were subcutaneously implanted to the flank area of the animals. When tumor size reached 100-150 mm^3, mice were randomized into experimental or vehicle groups with 10 mice/group and treatment was started (Day 1). The tested compounds were formulated in 5% DMSO in D5W. All compounds were given by IP, QDx5/wk (5 days on, 2 days off) as one cycle, for a total of 2 cycles. Tumor growth and body weight were measured twice a week. Tumor volume was calculated as (length x width^2)/2. Drug efficacy was assessed as Tumor Growth Inhibition (TGI) and Tumor Growth Delay (TGD). TGI was defined as (1-ΔT/ΔC) x 100, where ΔT/ΔC presented the ratio of the change in mean (or median, if variation within the group was relatively large) tumor volume of the treated group and of the control group. TGD was calculated as the extra days for the treated tumor to reach 500mm^3 as compared to the control group. Animals were culled when individual tumor size reached over 2000mm^3 or mean tumor volume exceeded 1000mm^3 in the group. Data are expressed as the mean ± SEM. One-way analysis of variance with Dunnett post comparison test (GraphPad Prism 4) or two-tailed student's t-test were used for analysis. A P level < 0.05 was considered statistically significant.
This study employed an A375 melanoma human tumor xenograft model and the compounds provided herein were compared to thiotepa and the approved anti melanoma drug, Abraxane. […] Mpk refers to mg/kg.

SNU-387 = test: In vitro human tumor cell line cytotoxicity assay; type: cell-based; conditions: for IC50: Homo sapiens
C3A = test: In vitro human tumor cell line cytotoxicity assay; type: cell-based; conditions: for IC50: Homo sapiens
H460 cells = test: In vitro proliferation assay, H460; type: cell-based; conditions: Homo sapiens, NCI-H460; 2 hrs exposure, wash, additional 70hrs, AlamarBlue; read-out: IC 50 in proliferation assay in H460 cells
Procedure: In vitro proliferation data on the H460 […] human tumor cell line is reported above in the compound table. IC50 values are reported in micromolar and result from exposure of compound at various concentrations for 2 hrs followed by a wash step and addition of fresh media followed by growth and cell viability staining and comparison to a media only treated control.
Specifically, exponentially growing cells were seeded at a density of 4 x 10^3 cells per well in a 96 well plate and incubated at 37°C in 5% CO2, 95% air and 100% relative humidity for 24 hours prior to addition of test compounds. Compounds were solubilized in 100% DMSO at 200 times the desired final test concentration. At the time of drug addition, compounds were further diluted to 4 times the desired final concentration with complete medium. Aliquots of 50 µl of compound at specified concentrations were added to microtiter wells already containing 150 µl of medium, resulting in the final drug concentration reported. After drug addition, the plates were incubated for an additional 2 hours at 37°C, 5% CO2, 95% air, and 100% relative humidity, then the drug was washed off and fresh medium was added and the plates were incubated for addition 70hrs at 37 °C, 5% CO2, 95% air and 100% relative humidity. At the end of this incubation, the viable cells were quantified using the AlamarBlue assay. The drug concentration resulting in growth inhibition of 50% (IC50) was calculated using Prism software (Irvine, CA), and the results were listed in the table.

Recombinant human AKR1C3 = Recombinant human AKR1C3 (Homo sapiens, UniProt P42330); test: Activation by the aldoketo reductase AKR1C3; type: biochemical; conditions: 5 µM, 2 mM NADPH, 37 °C, up to 120 min; FIG. 2
Sequence of Recombinant human AKR1C3 (P42330 whole entry): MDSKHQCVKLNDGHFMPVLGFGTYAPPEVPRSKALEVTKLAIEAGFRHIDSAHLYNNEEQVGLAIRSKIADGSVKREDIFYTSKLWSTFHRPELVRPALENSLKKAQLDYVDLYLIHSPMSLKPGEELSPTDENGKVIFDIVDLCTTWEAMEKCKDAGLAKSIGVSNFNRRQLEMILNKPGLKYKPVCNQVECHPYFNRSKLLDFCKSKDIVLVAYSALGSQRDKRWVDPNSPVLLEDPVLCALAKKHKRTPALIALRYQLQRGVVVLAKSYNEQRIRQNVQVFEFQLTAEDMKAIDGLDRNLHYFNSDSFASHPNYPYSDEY
Procedure: Recombinant human AKR1C3 was diluted to 25 µg/mL in phosphate buffered saline (PBS), pH 7.4 (37 °C), containing 2 mM NADPH. TH2870 or progesterone (positive control) in 30% methanol/70% water was added to the reaction mixture at a final concentration of 5 µM and incubated at 37 °C for 120 minutes. At various times up to 120 min, 50 µL of the reaction mixture was taken and 200 µL acetonitrile containing propranolol as internal standard was added, vortex-mixed and centrifuged for 10 min. The resulting supernatant (5 µL) was injected into a LC/MS/MS for quantitation of % remaining TH 2870 and progesterone. The compounds were tested in duplicates.

HepG2 = test: In vitro human tumor cell line cytotoxicity assay; type: cell-based; conditions: for IC50: Homo sapiens
Vcap = test: In vitro human tumor cell line cytotoxicity assay; type: cell-based; conditions: for IC50: Homo sapiens, VCaP
PLCPRF5 = test: In vitro human tumor cell line cytotoxicity assay; type: cell-based; conditions: for IC50: Homo sapiens
HCCC9810 = test: In vitro human tumor cell line cytotoxicity assay; type: cell-based; conditions: for IC50: Homo sapiens
LIXC012 = test: In vitro human tumor cell line cytotoxicity assay; type: cell-based; conditions: for IC50: Homo sapiens

SMILES: CC(OP(=O)(N1CC1)N1CC1)c1ccc([N+](=O)[O-])c(Oc2cccc(C(=O)N(C)C)c2)c1 (racemic) [TH 2870, (R,S)-1-(3-(3-N,N-dimethylaminocarbonyl)phenoxyl-4-nitrophenyl)-1-ethyl-N,N'-bis(ethylene)phosphoramidate]
- TGD500, Days (vs. vehicle) [1]: >13 days
- TGI [1]: 98.0%
- Max Inhibition% (SNU-387): 102.8%
- Min Inhibition% (SNU-387): 1.7%
- IC50 (SNU-387; read-out: AbsIC50): 34 nM
- IC50 (SNU-387; read-out: RelIC50): 42.2 nM
- Max Inhibition% (C3A): 98.1%
- Min Inhibition% (C3A): 8.1%
- IC50 (C3A; read-out: AbsIC50): 6.2 nM
- IC50 (C3A; read-out: RelIC50): 7.1 nM
- IC50 (H460 cells): 5 nM
- disappearance of compound (% remaining) in the presence of AKR1C3 (Recombinant human AKR1C3): rapid disappearance
- Max Inhibition% (HepG2): 98.9%
- Min Inhibition% (HepG2): 3.3%
- IC50 (HepG2; read-out: AbsIC50): 6.4 nM
- IC50 (HepG2; read-out: RelIC50): 5.5 nM
- IC50 (Vcap; read-out: AbsIC50): 15.2 nM
- IC50 (Vcap; read-out: RelIC50): 22.7 nM
- Max Inhibition% (Vcap; Vcap): 100.2%
- Min Inhibition% (Vcap; Vcap): -3.4%
- Max Inhibition% (PLCPRF5): 53.3%
- Min Inhibition% (PLCPRF5): -1.7%
- IC50 (PLCPRF5; PLC-PRF-5, read-out: AbsIC50): 575 nM
- IC50 (PLCPRF5; PLC-PRF-5, read-out: RelIC50): 474 nM
- Max Inhibition% (HCCC9810): 95.4%
- Min Inhibition% (HCCC9810): -2.6%
- IC50 (HCCC9810; read-out: AbsIC50): 29.4 nM
- IC50 (HCCC9810; read-out: RelIC50): 29.2 nM
- Max Inhibition% (LIXC012): 87.1%
- Min Inhibition% (LIXC012): 6.6%
- IC50 (LIXC012; read-out: AbsIC50): 18.7 nM
- IC50 (LIXC012; read-out: RelIC50): 27.4 nM
